Measured values from US6911207B1, “Cytotoxic T-cell epitopes of the papillomavirus L1-protein and use thereof in diagnostics and therapy” (MediGene Aktiengesellschaft, priority 1999, dated 2005).

Columns and labels:
[1] = tested on: RMA-S cells; format: cell-based, mouse
[2] = tested on: MVA-L1Δc-infected B6 cells; format: cell-based, mouse

| Substance | specific lysis of peptide-preincubated RMA-S target cells by spleen cells of L1-immunized mouse 1 [1] | specific lysis of MVA-F6-infected (control virus) B6 target cells by spleen cells of the immunized mouse [2] | specific lysis of MVA-L1Δc-infected B6 target cells by spleen cells of the immunized mouse [2] |
| --- | --- | --- | --- |
| ASNENMETM (Influenza Virus Type A) [AM control peptide] | did not cause any distinct lysis | – | – |
| L1 VLPs: HPV16 L1 virus-like particles (Muller M. et al. 1997) | – | not the MVA-F6-infected target cells | lysed the MVA-L1Δc-infected target cells |
